Results reported in US4581451A, “Preparation of di- and tri-substituted xanthine compounds” (priority 1980, dated 1986).

assay: behavioural study in rats: anxiety induced by a new environment (rearings and movements); assay type: in vivo, male Sprague-Dawley rats; conditions: Rattus norvegicus, po, 0.5 h
Description: The xanthines obtained in accordance with the preceding Examples were the subject of a behavioural study in rats as a function of the anxiety induced by a new environment. In rats, anxiety is manifested by rearing the animal on its two hind paws, whilst locomotive activity is expressed by their movements.
A state of anxiety is induced by confronting "naive" male Sprague-Dawley (Iffa-Credo, France) rats weighing from 260 to 300 g with a new environment in the form of cages of Macrolon (30×25 cm) which are situated in a sound-proofed air-conditioned room (22° C./50% relative humidity).
The number of rearings and movements is automatically determined by means of infrared photoelectric cells which only emit electrical pulses for the active movements of the animal and not for its static movements, such as those of its head and tail, for reasons of reproducibility. These photoelectric cells scan the cages at two different levels so as to distinguish the standing-up movements from the other movements. The number of rearings and movements is counted by the two rows of photoelectric cells, memorised and read out using a printer in accordance with a pre-established program.
The tested compound in solution in the form of its sodium salt is orally administered by oesophagus probe (the reference administration being formed by 6 ml/kg of distilled water) 30 minutes before the animals are placed in the cages. The number of rearings and movements is determined during the 15 minutes after they have been put into the cages in relation to the effect generated by the reference administration.
The ED 50 dose (expressed in mg/kg), i.e. the quantity of substance required to bring about a 50% variation in the motive activity in relation to the reference administration, is determined from the development of the effects of the tested substances on the number of movements and rearings as a function of the progressive doses administered expressed as a percentage of the movements and rearings counted for the reference administration.
The gradients of the regression curves corresponding to the movements and to the rearings are compared by recording the value of the gradient of the movement curve on the abscissa (d) and the value of the gradient of the rearing curve on the ordinant (r) of a system of rectungular axes.
The ratio of the gradient of the movements to that of the rearings is also determined, enabling the specificity of effect of a given substance on the anxiety state to be assessed.
The effect of a substance is determined by its position relative to the curve d=r of gradient=1. The substances situated on this curve have a similar effect on the rearings and movements, being sedatives with a non-specific effect (S.N.). For these compounds, the ED 50 value quoted corresponds to the mean taken from the two regression curves.
These compounds are sedatives of anxiolytic character (S.A.). In this case, the ED 50 value is calculated from the regression curve of the rearings.

| Structure (SMILES) | ED50 [mg/kg] |
| --- | --- |
| CN(C)CCCN1c2ccccc2Sc2ccc(Cl)cc21 [chlorpromazine, reference compound] | 21 |
| CNC1=Nc2ccc(Cl)cc2C(c2ccccc2)=[N+]([O-])C1 [chlordiazepoxide, reference compound] | 12 |
| O=C(CCCN1CCC(O)(c2ccc(Cl)cc2)CC1)c1ccc(F)cc1 [haloperidol, reference compound] | 1 |
| C=CCn1c(=O)c2[nH]c(C)nc2n(CCCC)c1=O [Example 1, 1-allyl-3-butyl-8-methyl xanthine] | 0.14 |

same assay, conditions: conclusion from Table 3

| Structure (SMILES) | action profile | effect on the anxiety state |
| --- | --- | --- |
| Cn1c(=O)c2[nH]cnc2n(C)c1=O [theophylline, reference compound] | psychostimulating | does not have any effect on the anxiety state |

assay: base screening: diuretic in male rats; assay type: in vivo; conditions: Rattus norvegicus, read-out: minimal effective dose producing a significant response, diuretic (c)
Description: (c) diuretic in male rats, as determined in accordance with W. L. Lipschitz, Z Hadidian and A. Kerpcsar, JPET, Vol. 79, pages 97-110, 1943

| Structure (SMILES) | minimal effective dose [mg/kg] |
| --- | --- |
| C=CCn1c(=O)c2[nH]c(C)nc2n(CCCC)c1=O [Example 1, 1-allyl-3-butyl-8-methyl xanthine] | 5 |

assay: base screening: anti-allergic in male and female rats; assay type: in vivo; conditions: Rattus norvegicus, read-out: minimal effective dose producing a significant response, anti-allergic (d)
Description: (d) anti-allergic in male and female rats, as determined in accordance with J. Goose and A. M. J. N. Blair, Immunol., Vol. 16, pages 749-760, 1969

| Structure (SMILES) | minimal effective dose [mg/kg] |
| --- | --- |
| C=CCn1c(=O)c2[nH]c(C)nc2n(CCCC)c1=O [Example 1, 1-allyl-3-butyl-8-methyl xanthine] | 2.5 |

assay: base screening: bronchodilatory in vitro; conditions: not given
Description: (e) bronchodilatory in vitro as determined in accordance with F. P. Luduena et al., Arch. int. Pharmacodyn, Vol. 111, pages 392-400, 1957

| Structure (SMILES) | minimal effective concentration producing a significant response, bronchodilatory (e) [µg/mL] |
| --- | --- |
| C=CCn1c(=O)c2[nH]c(C)nc2n(CCCC)c1=O [Example 1, 1-allyl-3-butyl-8-methyl xanthine] | 100 |

assay: base screening: anti-histamine in vitro; conditions: not given
Description: (f) anti-histamine in vitro as determined in accordance with R. Magnus, Arch f.d., ges. physiol., Vol. 102, pages 123-151, 1904.

| Structure (SMILES) | minimal effective concentration producing a significant response, anti-histamine (f) [µg/mL] |
| --- | --- |
| C=CCn1c(=O)c2[nH]c(C)nc2n(CCCC)c1=O [Example 1, 1-allyl-3-butyl-8-methyl xanthine] | 100 |

assay: catalepsy induced by haloperidol in rats; assay type: in vivo; conditions: p.o.
Description: (§1) The compounds of Examples 1, 4, 11 and 12 were subjected to behavioural tests in accordance with "predictability and specificity of behaviour screening tests for neuroleptics", P. Worms and K. G. Lloyd, […], Vol. 5, pages 445-450, 1979, comprising: […]

| Structure (SMILES) | catalepsy induced by haloperidol |
| --- | --- |
| C=CCn1c(=O)c2[nH]c(C)nc2n(CCCC)c1=O [Example 1, 1-allyl-3-butyl-8-methyl xanthine] | potentialisation at 1 mg/kg p.o. |

assay: analgesia induced by pentobarbital in mice; assay type: in vivo; conditions: p.o.
Description: as §1

| Structure (SMILES) | analgesia induced by pentobarbital |
| --- | --- |
| C=CCn1c(=O)c2[nH]c(C)nc2n(CCCC)c1=O [Example 1, 1-allyl-3-butyl-8-methyl xanthine] | potentialisation at 0.5 mg/kg p.o. |

assay: climbing behaviour induced by apomorphine in mice; assay type: in vivo; conditions: p.o.
Description: as §1

| Structure (SMILES) | climbing behaviour induced by apomorphine |
| --- | --- |
| C=CCn1c(=O)c2[nH]c(C)nc2n(CCCC)c1=O [Example 1, 1-allyl-3-butyl-8-methyl xanthine] | inhibition at 1 mg/kg p.o. |

assay: stereotype behaviour induced by apomorphine in rats; assay type: in vivo; conditions: p.o.
Description: as §1

| Structure (SMILES) | stereotype behaviour induced by apomorphine |
| --- | --- |
| C=CCn1c(=O)c2[nH]c(C)nc2n(CCCC)c1=O [Example 1, 1-allyl-3-butyl-8-methyl xanthine] | no antagonism up to 8 mg/kg p.o. |

assay: rectal temperature in mice; assay type: in vivo; conditions: p.o.
Description: as §1

| Structure (SMILES) | rectal temperature |
| --- | --- |
| C=CCn1c(=O)c2[nH]c(C)nc2n(CCCC)c1=O [Example 1, 1-allyl-3-butyl-8-methyl xanthine] | hypothermal effect at 2 mg/kg p.o. |

assay: hypomotility induced by amphetamine in rats; assay type: in vivo; conditions: p.o.
Description: as §1

| Structure (SMILES) | hypomotility induced by amphetamine |
| --- | --- |
| C=CCn1c(=O)c2[nH]c(C)nc2n(CCCC)c1=O [Example 1, 1-allyl-3-butyl-8-methyl xanthine] | antagonism at 0.5 mg/kg p.o. |
